System: Blood Brain Barrier (BBB)
Assay: Blood brain barrier permeability, Evans blue uptake into brain
Type: in vivo, mice
Details: peptide 1 mg/kg i.p. together with tPA 1 mg/kg; FIG. 4A
Method: The uptake of Evans blue dye into a brain tissue served as a marker to for quantifying disruption of the blood-brain barrier and increase in permeability of the BBB. […] Data was expressed as absorbance at 620 nm per gram of tissue. The mean±SEM of data from 8-9 animals/group are shown.
FIG. 4A. Mice were injected i.p. with 25 μl of saline or saline containing either WT-tPA or mtPA (1 mg/kg each) alone or together with PAI-1 derived 18 amino acids (aa) (as denoted by SEQ ID NO. 8) or 6 aa (as denoted by SEQ ID NO. 3) peptides (1 mg/kg each). Ten minutes later, the mice were given an i.v. injection of 2% Evans blue (EB) in saline. One hour after injection of dye, organs were cleared of blood by transcardiac perfusion. […] Extruded dye was quantified by absorbance at 620 nm. The figure presents a histogram illustration of the absorbance of EB at […] per gram of tissue. […]
To determine the effect of injection of tPA-S^481A on BBB function, anesthetized mice were injected i.p. with 25 μl of saline or saline containing tPA or tPA mutant (tPA-Ser^481Ala) (1 mg/kg each), followed by the intravenous injection of 2% Evans blue in saline. Evans blue was quantified by absorbance at 620 nm.
Plasminogen activator inhibitor-1 (PAI-1) is recognized as the inhibitor of tPA. […] Extruded dye was quantified by absorbance at 620 nm. Data are expressed in FIG. 4A as absorbance per gram of tissue.

## EEIIMD (listed as Homo sapiens) [reference compound]
  inhibition of recombinant tPA-induced BBB permeability: failed to decrease
